In article PMC12169615, “Fluorescent 4‑Nitrobenzo-2-oxa-1,3-diazole-Coupled Bile Acids as Probe Substrates of Hepatic and Intestinal Bile Acid Transporters of the Solute Carrier Families SLC10 and SLCO” (Journal of Medicinal Chemistry, 2025):

Experiments:
[1] = design: method as in not given; conditions: ref not given, cited from earlier work
mouse mAsbt = target: T1, mouse mAsbt (Mus musculus, UniProt P70172); assay: Fluorescence microscopy screening of cellular uptake of 3-NBD-BA; format: cell-based; design: stably transfected with the full open reading frames of human NTCP, ASBT, SOAT, OATP1B1, and OATP1B3 as well as mouse mNtcp and mAsbt; expressed in transfected cells; conditions: 50 μM, 10 min, +Na+ vs -Na+
T1 sequence (P70172 1-348): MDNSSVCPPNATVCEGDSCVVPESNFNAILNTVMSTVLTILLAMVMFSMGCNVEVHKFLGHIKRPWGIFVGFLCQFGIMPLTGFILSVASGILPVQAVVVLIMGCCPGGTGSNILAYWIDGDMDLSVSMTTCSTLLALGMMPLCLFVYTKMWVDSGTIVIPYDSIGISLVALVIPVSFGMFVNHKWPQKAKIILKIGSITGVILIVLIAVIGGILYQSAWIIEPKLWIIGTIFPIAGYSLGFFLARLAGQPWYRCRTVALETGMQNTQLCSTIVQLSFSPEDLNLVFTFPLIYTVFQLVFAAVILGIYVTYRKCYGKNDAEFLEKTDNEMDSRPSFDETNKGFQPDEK
Method: (§1) Then, all cell lines were cultivated in chamber slides and were grown to confluence to screen for carrier-mediated cellular accumulation of the synthesized NBD-BA. Incubation with the NBD-BA was done in the presence of sodium (+Na^+) as well as in the absence of sodium (-Na^+, negative control) for all SLC10 carriers, namely NTCP, ASBT, mNtcp, mAsbt, and SOAT. For OATP1B1 and OATP1B3, nontransfected HEK293 cells were used as negative control.
(§2) 4 Screening of the cellular uptake of 3-NBD-BA in HEK293 (HEK) cells stably expressing the human carriers NTCP, ASBT, SOAT, OATP1B1, and OATP1B3, or the mouse carriers mNtcp and mAsbt. For the SLC10 carriers, sodium-free conditions (-Na^+) were used as control. For the OATPs, experiments in non-carrier-expressing HEK293 cells (HEK) served as control. All cell lines were incubated for 10 min with the indicated 3-NBD-BA at 50 μM concentration. Then, cells were washed with PBS and subjected to fluorescence microscopy. Identical microscope settings were used for all images. Scale bar: 75 μm.

HEK293 cells = assay: Fluorescence microscopy screening: accumulation independent from control conditions; format: cell-based, human; conditions: 50 μM, 10 min, all HEK293 cell lines, with and without sodium
Method: as §1, §2

For `C[C@H](CCC(=O)NCCS(=O)(=O)[O-])[C@H]1CC[C@H]2[C@@H]3[C@H](O)C[C@@H]4C[C@@H](Nc5ccc([N+](=O)[O-])c6nonc56)CC[C@]4(C)[C@H]3C[C@H](O)[C@]12C.[Na+]` [14a], the “Amount injected recovered in the bile” value ([1]; in situ liver perfusion, injected into the mesenterial vein, within 30 min) is given as 95% and the “Cellular NBD-fluorescence, mAsbt-HEK293 (microscopy)” value (mouse mAsbt) is given as “significant increase in cellular NBD-fluorescence compared to the negative control”.

In the case of “12α-Hydroxy-3β-[(7-nitro-2,1,3-benzoxadiazol-4-yl)amino]-5β-cholan-24-oate [6c]”, the “Cellular NBD-fluorescence irrespective of carrier/control conditions (microscopy)” value (HEK293 cells) is reported as “significant increase in cellular NBD-fluorescence, independent from the control conditions”.

In the case of `C[C@H](CCC(=O)O)[C@H]1CC[C@H]2[C@@H]3[C@H](O)C[C@@H]4C[C@H](Nc5ccc([N+](=O)[O-])c6nonc56)CC[C@]4(C)[C@H]3C[C@H](O)[C@]12C` [6d, 7α,12α-Dihydroxy-3α-[(7-nitro-2,1,3-benzoxadiazol-4-yl)amino]-5β-cholan-24-oate], the “Cellular NBD-fluorescence irrespective of carrier/control conditions (microscopy)” value (HEK293 cells) is reported as “significant increase in cellular NBD-fluorescence, independent from the control conditions”.

With `C[C@H](CCC(=O)NCC(=O)O)[C@H]1CC[C@H]2[C@@H]3[C@H](O)C[C@@H]4C[C@@H](Nc5ccc([N+](=O)[O-])c6nonc56)CC[C@]4(C)[C@H]3C[C@H](O)[C@]12C` [16a] the “Cellular NBD-fluorescence, mAsbt-HEK293 (microscopy)” value (mouse mAsbt) was “significant increase in cellular NBD-fluorescence compared to the negative control”.

With `C[C@H](CCC(=O)NCC(=O)O)[C@H]1CC[C@H]2[C@@H]3[C@H](O)C[C@@H]4C[C@H](Nc5ccc([N+](=O)[O-])c6nonc56)CC[C@]4(C)[C@H]3C[C@H](O)[C@]12C` [16d] the “Cellular NBD-fluorescence, mAsbt-HEK293 (microscopy)” value (mouse mAsbt) was “significant increase in cellular NBD-fluorescence compared to the negative control”.

For `C[C@H](CCC(=O)NCCS(=O)(=O)[O-])[C@H]1CC[C@H]2[C@@H]3[C@H](O)C[C@@H]4C[C@H](Nc5ccc([N+](=O)[O-])c6nonc56)CC[C@]4(C)[C@H]3C[C@H](O)[C@]12C.[Na+]` [14d], the “Fate in the liver (metabolism, secretion into bile)” value ([1]; in situ liver perfusion with bile duct cannulation) is given as “completely transformed within the liver cells to a polar fluorescent metabolite that showed sparse secretion into bile” and the “Cellular NBD-fluorescence, mAsbt-HEK293 (microscopy)” value (mouse mAsbt) is given as “significant increase in cellular NBD-fluorescence compared to the negative control”.

For `C[C@H](CCC(=O)O)[C@H]1CC[C@H]2[C@@H]3[C@H](O)C[C@@H]4C[C@@H](Nc5ccc([N+](=O)[O-])c6nonc56)CC[C@]4(C)[C@H]3C[C@H](O)[C@]12C` [6a, 7α,12α-Dihydroxy-3β-[(7-nitro-2,1,3-benzoxadiazol-4-yl)amino]-5β-cholan-24-oate], the “Cellular NBD-fluorescence irrespective of carrier/control conditions (microscopy)” value (HEK293 cells) was “significant increase in cellular NBD-fluorescence, independent from the control conditions”.

In the case of “7α-Hydroxy-3β-[(7-nitro-2,1,3-benzoxadiazol-4-yl)amino]-5β-cholan-24-oate [6b]”, the “Cellular NBD-fluorescence irrespective of carrier/control conditions (microscopy)” value (HEK293 cells) is reported as “significant increase in cellular NBD-fluorescence, independent from the control conditions”.
